# Test results published in patent US10913738B2 (BRISTOL-MYERS SQUIBB COMPANY, priority 2017, dated 2021).
# Molecular target: T1, His-GST-TVMV-hRIPK1(1-324) (Homo sapiens, UniProt Q13546)
# T1 construct: The coding region of human RIPK1(1-324) flanked by NdeI site at 5′ end; made in house; host or cells: Spodoptera frugiperda (Sf9) insect cells, baculovirus
# T1 sequence (Q13546 1-324): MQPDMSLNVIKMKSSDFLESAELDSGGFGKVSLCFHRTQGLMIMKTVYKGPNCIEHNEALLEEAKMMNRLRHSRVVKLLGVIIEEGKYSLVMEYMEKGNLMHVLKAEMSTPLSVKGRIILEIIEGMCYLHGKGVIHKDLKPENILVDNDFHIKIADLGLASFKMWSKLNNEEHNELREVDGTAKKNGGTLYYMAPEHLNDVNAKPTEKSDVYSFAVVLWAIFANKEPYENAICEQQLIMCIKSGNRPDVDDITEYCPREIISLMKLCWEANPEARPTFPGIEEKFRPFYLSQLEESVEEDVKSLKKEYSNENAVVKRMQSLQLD
# Assay: RIPK1 HTRF Binding Assay
# Details: x marks IC50 class 20-200 nM; read-out: RIPK1 HTRF binding 20-200 nM
# Experimental: The plate was incubated at rt for 1 h.
# Cloning and Baculovirus Expression of RIPK1 Construct
# Baculovirus was generated for the construct using the Bac-to-Bac baculovirus expression system (Invitrogen) according to the manufacturer's protocol. Briefly, recombinant bacmid was isolated from transformed DH10Bac E. coli competent cells (Invitrogen) and used to transfect Spodoptera frugiperda (Sf9) insect cells (Invitrogen). Baculovirus was harvested 72 hours post transfection and a virus stock was prepared by infecting fresh Sf9 cells at a 1/1000 (v/v) ratio for 66 hours.
# The production was carried out either at a 10 L scale in a 22 L cellbag (GE Healthcare Bioscience, Pittsburgh, Pa.) or at a 20 L scale in a 50 L cellbag using WAVE-Bioreactor System 20/50 (GE Healthcare Bioscience). The infected cells were harvested by centrifugation at 2000 rpm for 20 min at 4° C. in a SORVALL® RC12BP centrifuge. The cell pellets was stored at −70° C. before protein was purified.
# RIPK1 containing cell paste was resuspended in 50 mM Tris pH 7.5, 150 mM NaCl, 10 mM imidazole, 5% glycerol, 5 mM MgSO4, 1 mM TCEP, 25 U/ml Benzonase, and Complete Protease Inhibitor tablets (1/50 ml, Roche Diagnostics, Indianapolis, Ind.). […] The suspension was clarified by centrifugation at 136,000×g for 40 min, at 4° C. The lysate was decanted from the pellet and passed through a 5 ml NiNTA Superflow cartridge (Qiagen, Valencia, Calif.) using an AKTA Pure (GE Healthcare). Column was eluted with 10 CV linear gradient into 50 mM Tris 7.5, 150 mM NaCl, 500 mM imidazole, 5% glycerol, 1 mM TCEP. Peak fractions were pooled and loaded directly onto 5 ml GSTrap 4B column (GE Healthcare). Column was washed with 50 mM Tris 7.0, 150 mM NaCl, 5% glycerol, 1 mM DTT and eluted in 10 CV linear gradient into 50 mM Tris 8.0, 150 mM NaCl, 20 mM reduced glutathione, 5% glycerol, 1 mM DTT. Fractions identified by SDS-PAGE as containing RIPK1 were pooled and concentrated using 30 kDa MWCO spin concentrators (Amicon Ultra-15, Millipore, Billerica, Mass.) and loaded onto a HiLoad 26/600 Superdex 200 column (GE Healthcare) equilibrated in 25 mM Tris 7.5, 150 mM NaCl, 2 mM TCEP, 5% glycerol.
# Protein was aliquoted and stored at −80° C.
row,Compound,IC50
1,"COc1ncc(-c2ccn3nc(N)nc3c2)cc1C(=O)NCC[C@H](O)c1ccc(Cl)cc1 [Example 157, 5-{2-amino-[1,2,4]triazolo[1,5-a]pyridin-7-yl}-N-[(3S)-3-(4-chlorophenyl)-3-hydroxypropyl]-2-methoxypyridine-3-carboxamide]",20 to 200 nM
2,"COc1nc(C)c(-c2ccn3nc(N)nc3c2)cc1C(=O)NCC[C@H](O)c1ccc(Cl)cc1 [Example 193, 5-{2-amino-[1,2,4]triazolo[1,5-a]pyridin-7-yl}-N-[(3S)-3-(4-chlorophenyl)-3-hydroxypropyl]-2-methoxy-6-methylpyridine-3-carboxamide]",20 to 200 nM
3,"Cc1nc(C)c(-c2ccn3nc(N)nc3c2)cc1C(=O)NCC[C@@H](O)c1ccc(Cl)cc1 [Example 178, 5-{2-amino-[1,2,4]triazolo[1,5-a]pyridin-7-yl}-N-[(3R)-3-(4-chlorophenyl)-3-hydroxypropyl]-2,6-dimethylpyridine-3-carboxamide]",20 to 200 nM

# Same assay, conditions: x marks IC50 class <20 nM; read-out: RIPK1 HTRF binding <20 nM
row,Compound,IC50
1,"(S)-2-(2-amino-[1,2,4]triazolo[1,5-a]pyridin-7-yl)-N-(3-(4-chlorophenyl)-3-hydroxypropyl)-5-methylisonicotinamide [Example 397]",< 20 nM
2,"5-(2-amino-[1,2,4]triazolo[1,5-a]pyridin-7-yl)-2-methoxy-N-(2-(pyrrolidine-1-carbonyl)benzyl)nicotinamide [Example 379]",< 20 nM
3,"Cc1nc(C)c(-c2ccn3nc(N)nc3c2)cc1C(=O)NCC[C@H](O)c1ccc(Cl)cc1 [Example 179, 5-{2-amino-[1,2,4]triazolo[1,5-a]pyridin-7-yl}-N-[(3S)-3-(4-chlorophenyl)-3-hydroxypropyl]-2,6-dimethylpyridine-3-carboxamide]",< 20 nM
4,"COc1ncc(-c2ccn3nc(N)nc3c2)cc1C(=O)NC(C)c1cc(OC(F)(F)F)ccc1F (single isomer, unassigned) [Example 89-2, 5-{2-amino-[1,2,4]triazolo[1,5-a]pyridin-7-yl}-N-{1-[2-fluoro-5-(trifluoromethoxy)phenyl]ethyl}-2-methoxypyridine-3-carboxamide]",< 20 nM
5,"[2H]C([2H])([2H])Oc1nc(C)c(-c2ccn3nc(N)nc3c2)cc1C(=O)NC(C)c1cc(OC(F)(F)F)ccc1F (single isomer, unassigned) [Example 97-2, 5-{2-amino-[1,2,4]triazolo[1,5-a]pyridin-7-yl}-N-{1-[2-fluoro-5-(trifluoromethoxy)phenyl]ethyl}-2-(deutero)methoxy-6-methylpyridine-3-carboxamide]",< 20 nM
6,"(R)-5-(2-amino-[1,2,4]triazolo[1,5-a]pyridin-7-yl)-N-(1-(2-fluoro-5-(trifluoromethoxy)phenyl)ethyl-2,2,2-d3)-2-methoxynicotinamide [Example 345]",< 20 nM
7,"Cc1ncc(-c2ccn3nc(N)nc3c2)cc1C(=O)NCCC(C)c1ccccc1 (centres unmarked) [Example 82, 5-{2-Amino-[1,2,4]triazolo[1,5-a]pyridin-7-yl}-2-methyl-N-(3-phenylbutyl)pyridine-3-carboxamide]",< 20 nM
8,"(R)-2-(2-amino-[1,2,4]triazolo[1,5-a]pyridin-7-yl)-N-(1-(2-fluoro-5-(trifluoromethyl)phenyl)ethyl)-5-methylisonicotinamide [Example 396]",< 20 nM
9,"Cc1ncc(-c2ccn3nc(N)nc3c2)cc1C(=O)NC(C)c1cc(C(F)(F)F)ccc1F (single isomer, unassigned) [Example 99-2, 5-{2-amino-[1,2,4]triazolo[1,5-a]pyridin-7-yl}-N-{1-[2-fluoro-5-(trifluoromethyl)phenyl]ethyl}-2-methylpyridine-3-carboxamide]",< 20 nM
10,"5-(2-amino-[1,2,4]triazolo[1,5-a]pyridin-7-yl)-N-(3,5-difluoro-2-isobutoxybenzyl)-2-methoxynicotinamide [Example 341]",< 20 nM

# Same assay, conditions: x marks IC50 class >200 nM; read-out: RIPK1 HTRF binding >200 nM
row,Compound,IC50
1,"COc1ncc(-c2ccn3nc(N)nc3c2)cc1C(=O)NCCC(O)c1ccc(Cl)cn1 (centres unmarked) [Example 75, 5-{2-Amino-[1,2,4]triazolo[1,5-a]pyridin-7-yl}-N-[3-(5-chloropyridin-2-yl)-3-hydroxypropyl]-2-methoxypyridine-3-carboxamide]",> 200 nM

# Test system: MLKL phosphorylation in HT29-L23 human colorectal adenocarcinoma cells
# Assay: MLKL Phosphorylation High-Content Assay
# Assay type: cell-based
# Details: Homo sapiens, x marks IC50 class 20-200 nM, read-out: pMLKL cell activity 20-200 nM
# Experimental: MLKL Phosphorylation High-Content Assay
# Following six hours incubation at 37° C. […] MLKL phosporylation was detected using anti-MLKL (phospho S358) antibody (Abcam #ab187091) (1:1000 dilution in Blocking Buffer [PBS supplemented with 0.1% BSA]) with overnight incubation at 4° C. […] Following another three cycles of washes in PBS, the microplates were sealed, and cellular images were acquired in the Cellomics ArrayScan VTI high-content imager equipped with an X1 camera. […] The image sets were analyzed using the Compartmental Analysis Bioapplication software (Cellomics). The level of MLKL phosphorylation was quantified as MEAN CircRingAvgIntenRatio. […] The data were fitted using the 4-parameter logistic equation to calculate the IC50 and Ymax values.
row,Compound,IC50
1,"Nc1nc2cc(-c3cnc(Cl)c(C(=O)NCc4cc(C(F)(F)F)ccc4F)c3)ccn2n1 [Example 170, 5-{2-amino-[1,2,4]triazolo[1,5-a]pyridin-7-y1}-2-chloro-N-{[2-fluoro-5-(trifluoromethyl)phenyl]methyl}pyridine-3-carboxamide]",20 to 200 nM
2,"COc1ncc(-c2ccc3nc(N)nn3c2)cc1NC(=O)Cc1cc(OC(F)(F)F)ccc1F [Example 418, N-(5-(2-amino-[1,2,4]triazolo[1,5-a]pyridin-6-yl)-2-methoxypyridin-3-yl)-2-(2-fluoro-5-(trifluoromethoxy)phenyl)acetamide]",20 to 200 nM
3,"COc1ncc(-c2ccn3nc(N)nc3c2)cc1C(=O)NC(C)CCc1ccccc1 (centres unmarked) [Example 101, 5-{2-amino-[1,2,4]triazolo[1,5-a]pyridin-7-yl}-2-methoxy-N-(4-phenylbutan-2-yl)pyridine-3-carboxamide]",20 to 200 nM
4,"Cc1ncc(-c2ccn3nc(N)nc3c2)cc1C(=O)Nc1cn(Cc2ccccc2)cn1 [Example 319, 5-(2-amino-[1,2,4]triazolo[1,5-a]pyridin-7-yl)-N-(1-benzyl-1H-imidazol-4-yl)-2-methylnicotinamide]",20 to 200 nM
5,"COc1ncc(-c2ccn3nc(N)nc3c2)cc1C(=O)NCc1cccc(F)c1C(=O)N1CCC(F)(F)C1 [Example 378, 5-(2-amino-[1,2,4]triazolo[1,5-a]pyridin-7-yl)-N-(2-(3,3-difluoropyrrolidine-1-carbonyl)-3-fluorobenzyl)-2-methoxynicotinamide]",20 to 200 nM

# Same assay, conditions: Homo sapiens, x marks IC50 class <20 nM, read-out: pMLKL cell activity <20 nM
row,Compound,IC50
1,"COc1ncc(-c2ccn3nc(N)nc3c2)cc1C(=O)NCC(C)Cc1ccccc1 (centres unmarked) [Example 113, 5-{2-amino-[1,2,4]triazolo[1,5-a]pyridin-7-yl}-2-methoxy-N-(2-methyl-3-phenylpropyl)pyridine-3-carboxamide]",< 20 nM

# Same assay, conditions: Homo sapiens, x marks IC50 class >200 nM, read-out: pMLKL cell activity >200 nM
row,Compound,IC50
1,"COc1ncc(-c2ccn3nc(N)nc3c2)cc1C(=O)NC[C@H]1C[C@@H]1c1ccc(F)cc1 [Example 112, 5-{2-amino-[1,2,4]triazolo[1,5-a]pyridin-7-yl}-N-{[(1S,2S)-2-(4-fluorophenyl)cyclopropyl]methyl}-2-methoxypyridine-3-carboxamide]",> 200 nM
2,"COc1ncc(-c2ccn3nc(N)nc3c2)cc1C(=O)NCCC(O)c1ccc(F)cc1 (single isomer, unassigned) [Example 71-2, 5-(2-Amino-[1,2,4]triazolo[1,5-a]pyridin-7-yl)-N-(3-(4-fluorophenyl)-3-hydroxypropyl)-2-methoxynicotinamide]",> 200 nM

# Same assay, conditions: x marks IC50 class <20 nM, read-out: pMLKL cell activity <20 nM
row,Compound,IC50
1,"COc1nc(C)c(-c2ccn3nc(N)nc3c2)cc1C(=O)NCc1cccc(F)c1C(=O)N1CCC(F)(F)C1 [Example 382, 5-(2-amino-[1,2,4]triazolo[1,5-a]pyridin-7-yl)-N-(2-(3,3-difluoropyrrolidine-1-carbonyl)-3-fluorobenzyl)-2-methoxy-6-methlnicotinamide]",< 20 nM
